According to patent US20100204219A1, “AROMATIC 1,4-DI-CARBOXYLAMIDES AND THEIR USE” (priority 2006, published 2010):

How the values were obtained:
Type in all cases: binding
Settings in all cases: Example 1
[1] = biological target: T1, βCat-TCF4 (Tcf-4-βCatenin interaction) (Homo sapiens, UniProt P35222); assay: ELISA based protein-protein interaction assay, βCat-TCF4
T1 sequence (P35222 141-664 limits assumed): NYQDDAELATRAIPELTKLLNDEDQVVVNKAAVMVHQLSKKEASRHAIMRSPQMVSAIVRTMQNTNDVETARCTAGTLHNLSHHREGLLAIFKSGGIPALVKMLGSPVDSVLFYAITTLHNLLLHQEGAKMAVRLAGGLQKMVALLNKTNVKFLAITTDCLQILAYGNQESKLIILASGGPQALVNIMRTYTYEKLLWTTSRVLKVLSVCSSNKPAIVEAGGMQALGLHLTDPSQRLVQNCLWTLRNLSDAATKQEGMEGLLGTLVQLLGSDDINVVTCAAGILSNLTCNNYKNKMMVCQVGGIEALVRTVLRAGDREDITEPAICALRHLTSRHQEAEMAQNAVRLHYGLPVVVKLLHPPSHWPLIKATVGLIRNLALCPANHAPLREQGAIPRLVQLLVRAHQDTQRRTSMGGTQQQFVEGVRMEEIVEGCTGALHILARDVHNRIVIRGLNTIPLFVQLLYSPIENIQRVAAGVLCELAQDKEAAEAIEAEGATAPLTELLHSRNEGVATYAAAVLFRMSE
Text: (§1) cDNAs including the binding domains of Lgs and beta-Catenin were fused down-stream of glutathione-S-transferase (GST) cDNA in pGEX-4T inducible bacterial expression vector (Pharmacia). Similar recombinant DNA constructs were generated in the pET-32a(+) vector (Novagen) for expression of fusion protein containing the Thioredoxine-6His tag at their N-terminus. Fusion proteins were produced in BL21 bacteria (e.g. Stratagene) following manufacturer's recommendation.
(§2) To isolate the produced fusions protein, bacteria were ground in aluminum oxide (Sigma, A2039) and the resulting powder extracted in lysis buffer (140 mM NaCl, 10 mM Na2HPO4, 1.8 mM KH2PO4, 2.7 mM KCl, 1 mM EDTA, 1% Triton-X-100, 1 mM DTT and protease inhibitors) under rotation for 30 minutes. Supernatants were cleared by centrifugation then filtered on a 0.45 μm membrane before protein purification. For GST tagged protein, lysate were processed on glutathione agarose beads following manufacturer's recommendation (Amersham Pharmacia) and purified proteins eluted in 50 mM Tris-Cl, 10 mM reduced glutathione pH8.0. For thioredoxine-6His fusions, tagged proteins were purified from the lysate on a nickel chelating column (e.g. Hitrap chelating, G.E. Healthcare) using an HPLC system (e.g. Akta Prime, G.E. Healthcare) and eluted under increasing concentration of imidazole. The purified proteins solution was dialyzed against PBS before use. The quality of the preparations was checked by SDS-gel electrophoresis by standard methods well known by persons skilled in the art.
(§3) Compound preparation: Compounds can be prepared as 25 mM stock in DMSO and diluted in DMSO to reach final test concentrations of up to 100 μM. Final DMSO concentration in the assay is 5%.
(§4) 100 μl of GST fusion protein (e.g. GST-βCatenin) diluted to the appropriate concentration in phosphate buffer saline are added per well to a 96 well plate with high protein binding capacity (e.g. Nunc Maxisorp) and placed at 4° C. overnight. The following day the liquid in the wells is discarded and 150 μl 3% bovine serum albumin (BSA) in PBS are added to each well and incubated at room temperature for 2 hours under moderate shaking. This solution is then discarded and each well washed twice with 200 μl PBS. After carefully discarding the second wash, a mixture of 5 μl compound dilution and 95 μl 6His fusion protein (e.g. 6His-Bcl9) diluted to the appropriate concentration in PBS is added to each well. The plate is then incubated for 1 hour at room temperature under moderate shaking. This protein solution is then discarded and the wells washed 3 times with 200 μl 0.1% Tween-20 solution in PBS. After carefully discarding the final wash, 100 μl of anti 6His antibody conjugated to the horse-radish peroxidase (e.g. Roche antibody 11965085001) at the appropriate dilution in 1% BSA in PBS is added to the wells and the plate incubated for 1 hour at room temperature under moderate shaking. This solution is then discarded and the wells washed 3 times with 200 μl 0.1% Tween-20 solution in PBS. After carefully discarding the final wash, 100 μl of HRP substrate […] (TMB) in solution (e.g. Sigma T0440) is added to the wells and the plate incubated up to 30 minutes in the dark at room temperature. The reaction is stopped by addition of 100 μl of 2N HCl to each well and the optical density is measured at 450 nm and 630 nm.

[2] = biological target: T2, βCat-BCL9 (beta-Catenin/BCL9-BCL9L interaction) (Homo sapiens, UniProt P35222); assay: ELISA based protein-protein interaction assay, βCat-BCL9
T2 sequence (P35222 1-781): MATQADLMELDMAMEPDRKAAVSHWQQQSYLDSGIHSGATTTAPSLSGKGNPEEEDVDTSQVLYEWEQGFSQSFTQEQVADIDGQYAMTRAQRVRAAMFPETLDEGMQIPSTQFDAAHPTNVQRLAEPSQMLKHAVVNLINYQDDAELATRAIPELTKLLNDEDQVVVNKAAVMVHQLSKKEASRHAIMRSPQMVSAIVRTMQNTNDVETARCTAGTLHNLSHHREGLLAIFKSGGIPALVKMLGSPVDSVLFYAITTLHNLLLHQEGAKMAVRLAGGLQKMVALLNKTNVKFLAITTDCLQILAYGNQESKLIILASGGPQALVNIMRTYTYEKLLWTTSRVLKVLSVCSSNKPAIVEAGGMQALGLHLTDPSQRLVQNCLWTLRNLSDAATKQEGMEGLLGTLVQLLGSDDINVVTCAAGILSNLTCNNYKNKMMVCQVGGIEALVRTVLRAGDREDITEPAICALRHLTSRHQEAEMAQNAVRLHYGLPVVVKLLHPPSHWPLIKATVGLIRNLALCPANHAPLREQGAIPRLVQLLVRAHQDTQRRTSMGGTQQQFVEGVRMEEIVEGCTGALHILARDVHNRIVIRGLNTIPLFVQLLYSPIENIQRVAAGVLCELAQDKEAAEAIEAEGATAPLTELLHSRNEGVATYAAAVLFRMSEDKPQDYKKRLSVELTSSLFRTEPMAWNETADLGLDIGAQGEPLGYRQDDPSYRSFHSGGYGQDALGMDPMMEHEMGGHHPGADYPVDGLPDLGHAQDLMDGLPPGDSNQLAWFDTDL
Text: as §1, §2, §3, §4

[3] = biological target: T3, βCat-ECad (E-Cadherin-βCatenin interaction) (Homo sapiens, UniProt P35222); assay: ELISA based protein-protein interaction assay, βCat-ECad
T3 sequence (P35222 134-671 limits assumed): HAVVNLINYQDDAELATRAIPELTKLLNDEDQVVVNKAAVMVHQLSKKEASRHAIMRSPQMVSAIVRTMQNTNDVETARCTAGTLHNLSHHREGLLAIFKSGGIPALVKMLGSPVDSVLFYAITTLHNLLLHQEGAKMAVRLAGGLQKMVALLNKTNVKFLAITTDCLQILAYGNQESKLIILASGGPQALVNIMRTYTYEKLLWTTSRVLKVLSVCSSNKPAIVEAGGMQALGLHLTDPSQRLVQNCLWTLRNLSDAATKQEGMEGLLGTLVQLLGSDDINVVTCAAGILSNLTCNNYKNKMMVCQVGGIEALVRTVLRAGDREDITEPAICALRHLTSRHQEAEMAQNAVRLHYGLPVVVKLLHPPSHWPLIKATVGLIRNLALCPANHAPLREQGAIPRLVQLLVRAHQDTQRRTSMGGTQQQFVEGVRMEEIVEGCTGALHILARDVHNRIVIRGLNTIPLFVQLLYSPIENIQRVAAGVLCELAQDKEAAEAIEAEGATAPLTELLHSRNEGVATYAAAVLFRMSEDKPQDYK
Text: as §1, §2, §3, §4

| Compound | IC50 [1] | IC50 [2] | IC50 [3] |
| --- | --- | --- | --- |
| COC(=O)c1cc(NC(=O)c2ccc(C(=O)Nc3cc(C(=O)OC)cc(C(=O)OC)c3)nc2)cc(C(=O)OC)c1 [TGC0000160] | > 100 µM | 38 µM | – |
| COc1cccc(NC(=O)c2ccc(C(=O)Nc3cccc(OC)c3)nc2)c1 [TGC0011280] | 23 µM | > 100 µM | 21 µM |
| CC(=O)c1ccc(NC(=O)c2ccc(C(=O)Nc3ccc(C(C)=O)cc3)nc2)cc1 [TGC0011285] | > 10 µM | 6 µM | > 10 µM |
| COC(=O)c1ccc(NC(=O)c2ccc(C(=O)Nc3ccc(C(=O)OC)cc3)nc2)cc1 [TGC0011288] | > 10 µM | 2 µM | > 10 µM |
| COc1ccc(CCNC(=O)c2ccc(C(=O)NCCc3ccc(OC)c(OC)c3)nc2)cc1OC [TGC0011342] | > 50 µM | > 50 µM | > 50 µM |
| Cc1nnc(NC(=O)c2ccc(C(=O)Nc3nnc(C)s3)nc2)s1 [TGC0011344] | 119 µM | 86 µM | 41.4 µM |
| O=C(Nc1cccnc1)c1ccc(C(=O)Nc2cccnc2)nc1 [TGC0011423] | > 100 µM | 29 µM | > 100 µM |
| O=C(NCc1ccco1)c1ccc(C(=O)NCc2ccco2)nc1 [TGC0011428] | > 50 µM | > 50 µM | > 50 µM |
| O=C(NCc1ccc2c(c1)OCO2)c1ccc(C(=O)NCc2ccc3c(c2)OCO3)nc1 [TGC0011430] | > 50 µM | > 50 µM | > 50 µM |
| COc1cccc(C(=O)Nc2ccc(-c3cnc(-c4ccc(NC(=O)c5cccc(OC)c5)cc4)nc3)cc2)c1 [TGC0011528] | > 50 µM | > 50 µM | > 50 µM |
| CCCC(=O)Nc1ccc(-c2cnc(-c3ccc(NC(=O)CCC)cc3)nc2)cc1 [TGC0011566] | > 100 µM | 68 µM | > 100 µM |
| COC(=O)c1ccc(NC(=O)c2ccc(C(=O)Nc3ccc(C(=O)OC)cc3Cl)nc2)c(Cl)c1 [TGC0011605] | 22 µM | > 50 µM | 21 µM |
| O=C(Nc1ccc2oc(=O)ccc2c1)c1ccc(C(=O)Nc2ccc3oc(=O)ccc3c2)cc1 [TGC0012296] | > 10 µM | 3 µM | > 10 µM |
| O=C(O)c1cccc(NC(=O)c2ccc(C(=O)Nc3cccc(C(=O)O)c3)cc2)c1 [TGC0012297] | – | > 100 µM | – |
| N#Cc1ccccc1NC(=O)c1ccc(C(=O)Nc2ccccc2C#N)cc1 [TGC0012300] | – | > 10 µM | – |
| N#Cc1cccc(NC(=O)c2ccc(C(=O)Nc3cccc(C#N)c3)cc2)c1 [TGC0012301] | – | > 50 µM | – |
| COC(=O)c1ccc(NC(=O)c2cc(OC)c(C(=O)Nc3ccc(C(=O)OC)cc3)cc2OC)cc1 [TGC0012302] | > 100 µM | 94 µM | > 100 µM |
| N#Cc1ccc(NC(=O)c2ccc(C(=O)Nc3ccc(C#N)cc3)cc2)cc1 [TGC0012303] | > 10 µM | 5 µM | > 10 µM |
| COc1cc(NC(=O)c2ccc(C(=O)Nc3ccc(OC)c(OC)c3)nc2)cc(OC)c1 [TGC0012408] | – | 7 µM | – |
| COc1ccc(NC(=O)c2ccc(C(=O)Nc3ccc(NC(C)=O)cc3)cn2)cc1 [TGC0012409] | – | 5 µM | – |
